The data set is described as follows: Human HepG2 cell viability assay in 384 well format. The data set is classed as toxicity, cell-based. Further details: dose 125 nL, time 70.5 hour; cytotoxicity at 70.5 h: concentration not given beside the values. The conditions noted are these: HepG2 cells, read-out: Inhibition.
For the compound `Cc1nc(C)n(CC2CN(Cc3cccc(C(N)=O)c3)CCO2)n1` (stereo unspecified), the cytotoxicity at 70.5 h was -4.7%. With `COc1c(C2CCCN2C(=O)c2cc(Cl)c[nH]2)c(C)nn1C` (stereo unspecified), the cytotoxicity at 70.5 h was -0.121%. In the case of `NC(=O)c1ccc(NC(=O)CCN2CCCC(N3CCCC3)C2)cc1` (stereo unspecified) it was 12.4%. Regarding `Cc1cc(NC(=O)N2CCN(c3nc(C)c(C)s3)CC2)no1`, the cytotoxicity at 70.5 h is 21.7%.

With `CC(=O)N1CCCC1c1nnc2n1CCCCC2` (stereo unspecified), the cytotoxicity at 70.5 h amounted to 2.96%. In the case of `Cn1ccnc1CNC(=O)N1CCCC(Cc2nccn2C)C1` (stereo unspecified) it was 2.69%; in that of `Cc1nn(C)c(C)c1CCC(=O)N1CCCC1Cn1cccn1` (stereo unspecified), -2.38%. Consider `Cc1cc(C)n(C2CCCN(C(=O)c3ccc(F)cc3F)C2)n1` (stereo unspecified), for which the cytotoxicity at 70.5 h is -0.896%.

Consider `Cc1nc(C)n(C2CCCN(C(=O)Cc3cccnc3)C2)n1` (stereo unspecified), for which the cytotoxicity at 70.5 h amounted to 3.66%. On to `Cc1nn(C)c(C)c1C1CCCN1C(=O)c1ccc(Cl)o1` (stereo unspecified), for which the cytotoxicity at 70.5 h was 3.22%. `O=C(Nc1ccccc1)N1C[C@H]2C[C@H](C(=O)N3CCCC3)[C@@H](C1)O2`: the cytotoxicity at 70.5 h amounted to 15.5%. Take `CC1CC2(CCN(C(=O)c3c[nH]cn3)CC2)c2ccccc21` (stereo unspecified): the cytotoxicity at 70.5 h is -8.21%. To `O=c1cc(CN2CCCC2)nc2n1CCCN(S(=O)(=O)C1CC1)C2` belongs -1.37%. In the case of `Cc1cccc(N2CCOCC3(C2)CN(c2cccnc2)C(=O)CO3)n1` (stereo unspecified) it was -4.82%; in that of `CCc1ccc(NC(=O)N2C[C@H]3C[C@H](C(=O)NC4CCC4)[C@@H](C2)O3)cc1`, 8.99%; in that of `O=C(C1CCOC1)N1CC2(CCN(c3ccccc3)C2)C1` (stereo unspecified), -0.441%. With `CCS(=O)(=O)N1CCCn2c(nc(CN3CCCC3)cc2=O)C1`, the cytotoxicity at 70.5 h is -7.43%. As to `COc1cc(N2CCC3(CC2)OCC(=O)NC3C)ncn1` (stereo unspecified), the cytotoxicity at 70.5 h was -4.57%. To `Cn1cc(CN2CCC[C@]3(C[C@H](Oc4ccccn4)CO3)C2)cn1` belongs -7.75%.

Turning to `Cn1ccnc1CN1CCc2c(COCC3CC3)nn(C)c2C1`, the cytotoxicity at 70.5 h was -6.3%. As for `COc1cccc(-c2ccc3nc(C4CCN(C(C)=O)CC4)nn3c2)c1`, the cytotoxicity at 70.5 h was -4.61%. Take `CC(=O)N1CCC(c2nc3ccc(-c4cccc(F)c4)cn3n2)CC1`: the cytotoxicity at 70.5 h was -9.34%. As to `Cc1nc(CN2CCC23CCN(C(=O)c2ccco2)CC3)cs1`, the cytotoxicity at 70.5 h is -1.36%.

On to `CCO[C@@H]1CO[C@@]2(CCCN(S(=O)(=O)c3ccccc3)C2)C1`, for which the cytotoxicity at 70.5 h is -8.47%. To `O=S(=O)(c1ccccc1)N1CCC[C@]2(C[C@H](OCC3CC3)CO2)C1` belongs -9.34%; to `CCOC1COC2(CCN(S(=O)(=O)c3cccc(C)c3)CC2)C1` (stereo unspecified), -6.02%. `Cn1ccc(-c2cc(C(=O)N3CCOCC3)c3ccccn23)n1`: the cytotoxicity at 70.5 h is 3.83%. To `COCCNC(=O)[C@H]1C[C@@H]2CCN(Cc3ccoc3)C[C@H]2O1` belongs -15.5%; to `CN(C)C(=O)CC1CC2(CCNCC2)c2cc(F)ccc21` (stereo unspecified), -8.47%.

For the compound `COCC(=O)N1CCO[C@H]2[C@H](OC)CC[C@@H]21`, the cytotoxicity at 70.5 h was -16.2%. For the compound `Cn1cnc(-c2cc(C(=O)N3CCOCC3)c3ccccn23)c1`, the cytotoxicity at 70.5 h was -31.4%. As to `O=C(C1=CCCC1)N1C[C@@H]2COC[C@]2(COc2cccnc2)C1`, the cytotoxicity at 70.5 h is -5.78%. To `Cc1ccc(C(=O)N2C[C@@H]3COC[C@]3(COc3cccnc3)C2)cn1` belongs 12.6%; to `CC(=O)N1CCO[C@@H]2CN(C(=O)c3cc(C)oc3C)CC[C@@H]2C1`, 13%; to `COc1ccc(CN2CCn3c(CNS(C)(=O)=O)nnc3C2)cc1`, 24.4%.

With `Cn1cc(CN2CC[C@H](O)[C@@H]2Cc2ccncc2)cn1`, the cytotoxicity at 70.5 h worked out at 26%. As to `Cc1cc(C(=O)N2CC[C@@H]3CN(S(C)(=O)=O)CCO[C@@H]3C2)c(C)o1`, the cytotoxicity at 70.5 h was -5.13%.

For `O=S(=O)(c1ccccc1)N1CCC2(CCCN2CC2CCCC2)C1` (stereo unspecified), the cytotoxicity at 70.5 h is -5.67%. To `Cn1ncc2c1C(COCC1CC1)CN(Cc1ccc(F)cc1)C2` (stereo unspecified) belongs 25.3%; to `CCS(=O)(=O)NC[C@]12COC[C@H]1CN(Cc1cc(C)on1)C2`, -6.04%; to `O=C(NCC1CC1)[C@H]1C[C@@H]2CCN(Cc3nccs3)C[C@@H]2O1`, -2.02%. To `O=C1CC(c2cccnc2)C2(CCN(C(=O)c3ccncc3)CC2)N1` (stereo unspecified) belongs -1.04%; to `Cc1occc1C(=O)N1CCC2(CCC2NC(=O)c2ccn(C)c2)CC1` (stereo unspecified), -2.29%; to `O=C1CC[C@@H]2[C@@H](CCN2C(=O)c2ccsc2)N1CC1CC1`, -6.8%. To `NC(=O)N1CCC2(CC1)CN(c1ccsc1)C(=O)CO2` belongs 17.7%; to `O=C(NCc1cncc2c1CCN(CC1CCOC1)C2)c1ccco1` (stereo unspecified), 19.6%. As to `Fc1ccc2c(c1)C1(CCNCC1)CC2NC1CC1` (stereo unspecified), the cytotoxicity at 70.5 h turned out to be 14.1%. On to `c1ccc(OC[C@@H]2CCC[C@@]23CNCCO3)nc1`, for which the cytotoxicity at 70.5 h worked out at 10.8%. As to `c1cc(COC[C@@H]2CCC[C@@]23CNCCO3)ccn1`, the cytotoxicity at 70.5 h was determined as 8.32%. Regarding `Cc1ccc(CN2CCc3c(COCC4CC4)nn(C)c3C2)s1`, the cytotoxicity at 70.5 h is 21.5%. To `COc1ncccc1CN1C[C@H]2CCN(c3ncccn3)C[C@H]2C1` belongs 1.43%.

For the compound `Cc1cccc(N2CCOCC3(C2)CN(c2ccccc2)C(=O)CO3)n1` (stereo unspecified), the cytotoxicity at 70.5 h was -4.51%. As for `c1coc(CN2CCO[C@H]3[C@H](OCC4CCCC4)CC[C@@H]32)c1`, the cytotoxicity at 70.5 h came out at 11.8%. Consider `CN1CCC(c2nc3ccc(-c4cccc(F)c4)cn3n2)CC1`, for which the cytotoxicity at 70.5 h is -6.5%. On to `O=C(NCc1cccnc1)c1nc2c(s1)CCCN2C(=O)C1CC1`, for which the cytotoxicity at 70.5 h is -3.72%.

With `O=C1NCCN(CC2CC2)C12CCN(Cc1ccccc1)CC2`, the cytotoxicity at 70.5 h was 13.9%. `COCC1CN(Cc2ccoc2)Cc2nn(C)cc21` (stereo unspecified): the cytotoxicity at 70.5 h was -2.22%. For the compound `CCC1=N[C@@]2(CC[C@@H]3CN(Cc4ccc(Cl)cc4)C[C@@H]32)C(=O)N1`, the cytotoxicity at 70.5 h was -3.73%.

Regarding `COCC(=O)NCc1cc(=O)n2c(n1)CN(CC1CCOC1)CCC2` (stereo unspecified), the cytotoxicity at 70.5 h is 15.2%. Turning to `CN(C)CCO[C@@H]1CC[C@H]2[C@H]1OCCN2C(=O)COc1ccccc1`, the cytotoxicity at 70.5 h is -16.3%. Regarding `O=C(Cc1ccccc1F)N1C[C@@H]2COC[C@]2(COc2cccnc2)C1`, the cytotoxicity at 70.5 h is -11.5%.

On to `CC1=N[C@@]2(CC[C@@H]3CNC[C@@H]32)C(=O)N1CC(C)C`, for which the cytotoxicity at 70.5 h is 31.4%.

`Cc1ccc(CN2CC[C@H]3OCC[C@@H](C(=O)NC4CC4)[C@@H]3C2)o1`: the cytotoxicity at 70.5 h came out at 18.8%. In the case of `CNC(=O)C1Cn2ccnc2C2(CCN(Cc3cccc(C)n3)CC2)O1` (stereo unspecified) it was 0.339%; in that of `Cc1nnc(N2CC[C@H]3C[C@H](C(=O)N4CCOCC4)O[C@H]3C2)s1`, -2.02%; in that of `O=C(Cc1ccc(F)cc1)N1CCn2cc(Cn3cccn3)nc2C1`, -1.99%. With `Cc1ccc(N2CC[C@H]3C[C@@H](C(=O)N4CCOCC4)O[C@H]3C2)nn1`, the cytotoxicity at 70.5 h was -0.412%.

For `COCCN1CCC2(CC1)CN(C(=O)N(C)C)c1ccc(C)cc12`, the cytotoxicity at 70.5 h was determined as 3.45%. In the case of `O=S(=O)(c1cccs1)N1CC[C@H](O)[C@@H]1Cc1ccncc1` it was -1.15%; in that of `CN(C)C(=O)[C@@H]1C[C@@H]2CCN(Cc3nccs3)C[C@@H]2O1`, -6.01%; in that of `Cc1noc([C@H]2C[C@H]3OCC[C@H]3N(Cc3ccc4c(c3)OCO4)C2)n1`, -11.8%. To `CN1CC(=O)N(c2cccc(F)c2)CC12CCN(S(C)(=O)=O)C2` (stereo unspecified) belongs -10.7%; to `Fc1ccc(CN2CC[C@H]3O[C@@H](COCC4CCOCC4)CC[C@H]32)cc1`, 18.1%; to `Cn1cc(CN2CCC[C@]3(C[C@@H](Oc4ccccn4)CO3)C2)cn1`, -6.69%. On to `CCC(=O)N1CC[C@H]2[C@H](C[C@@H](CN3CCCC3)N2c2nccs2)C1`, for which the cytotoxicity at 70.5 h was -3.2%. Consider `CC(=O)N1CC[C@H]2[C@H](C[C@@H](CN3CCCC3)N2c2nccs2)C1`, for which the cytotoxicity at 70.5 h is -7.72%.

As for `CS(=O)(=O)N1Cc2ccnn2CC(C(=O)NCc2cccnc2)C1` (stereo unspecified), the cytotoxicity at 70.5 h is 20.5%.

`Cc1ccc(CC(=O)N2CC[C@@H]3CN(CCN(C)C)CCO[C@@H]3C2)cc1`: the cytotoxicity at 70.5 h is -8.7%. Take `c1cc(CO[C@@H]2CC[C@H]3[C@H]2OCCN3CC2CCOCC2)ccn1`: the cytotoxicity at 70.5 h stood at 21.5%. Take `COc1ccc(CN2C[C@@H](OCc3ccccn3)[C@H]3COC[C@H]32)cc1`: the cytotoxicity at 70.5 h was -23.2%. Regarding `c1cc(CO[C@@H]2CC[C@H]3[C@H]2OCCN3Cc2ccoc2)ccn1`, the cytotoxicity at 70.5 h was -14.9%.

For the compound `c1cncc(N2CCCC3(CN(Cc4cccs4)CCO3)C2)c1` (stereo unspecified), the cytotoxicity at 70.5 h was found to be 9.99%. With `O=C(NCc1ccccn1)[C@@H]1COC[C@H]2CN(C3CCOCC3)C[C@H]21`, the cytotoxicity at 70.5 h was found to be 2.68%. Consider `O=C(NCc1ccccn1)[C@@H]1CCO[C@@H]2CCN(Cc3ccoc3)C[C@H]21`, for which the cytotoxicity at 70.5 h is -1.45%.

Turning to `O=C(c1ccco1)N1C[C@@H]2OCCN(CCN3CCCC3)[C@@H]2C1`, the cytotoxicity at 70.5 h was -11.2%.

Regarding `c1cncc(N2CCOCC3(CCCN(Cc4cccs4)C3)C2)c1` (stereo unspecified), the cytotoxicity at 70.5 h turned out to be 0.445%. In the case of `Cc1cc(CN2C[C@@H]3COC[C@]3(CN(C)C)C2)no1` it was -6.11%. Regarding `Cc1ccc2c(c1)C1(CCNCC1)CN2C(=O)CN(C)C`, the cytotoxicity at 70.5 h is 4.93%. To `CCN(C)c1ncnc2c1CCN(Cc1csc(C)n1)CC2` belongs -12.4%; to `CN1CC[C@H]2[C@H](C[C@@H](CN3CCCC3)N2c2nccs2)C1`, -3.73%. In the case of `COc1ccc(CN2CCn3cc(CN4CCN(C)CC4)nc3C2)cc1` it was -7.16%.
